# Source: patent EP4786466A1, “QUINAZOLINE DERIVATIVE, SALT THEREOF, AND PHARMACEUTICAL COMPOSITION COMPRISING SAME AS ACTIVE INGREDIENT” (Korea Research Institute of Chemical Technology, priority 2023, dated 2025)
# Like-named read-outs stand apart in the source and are kept apart here.
# Key:
# in vitro = conditions: human
# Description: (§1) MCF7 breast cancer cell lines and MCF10A normal breast cancer cell lines were treated with serial dilutions of the compounds of the present invention ranging from 1 µM to 15.63 nM for 72 hours. Cell viability was measured by the WST-8 assay (Cyto XTM cell viability assay kit; LPS solution, Daejeon, Korea) according to the manufacturer's instructions.
# [1] = tested on: MCF10A normal breast cell lines; test: Cell viability analysis, WST-8 assay, MCF10A; conditions: Homo sapiens, MCF-10A, 72 h
# Description: as §1
# pENSA = pENSA level by immunofluorescence (described method: in vitro kinase analysis with GST-tag-MASTL and His-tag-ENSA); assay type: cell-based; conditions: for pENSA (%) Immunofluor ecense (1 µM): compound 1 µM
# In short: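 In vitro kinase reaction using recombinant GST-tagged MASTL with His-tagged ENSA as substrate; phosphorylated ENSA (pENSA) serves as read-out of MASTL activity. Cell lines named: MCF7 breast cancer and MCF10A.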
# [2] = tested on: MCF7 breast cancer cell lines; test: Cell viability analysis, WST-8 assay, MCF7; conditions: Homo sapiens, MCF7, 72 h; for viability at 1 µM: read-out: Cell viability (%) WST-8, MCF7 (1 µM), compound 1 µM, 72 hours; for viability at 1.25 µM: read-out: Cell viability (%) WST-8, MCF7, footnote a: concentration 1.25 µM, 72 hours; for viability at 1.1 µM: read-out: Cell viability (%) WST-8, MCF7, footnote d: concentration 1.1 µM, 72 hours
# Description: as §1
# [3] = target: T1, Recombinant GST-TAG-MASTL (Homo sapiens, UniProt Q96GX5); test: HTRF-based kinase assay (HTRF KinEASE assay kit); assay type: biochemical; conditions: for activity at 1 µM: read-out: MASTL activity (%) HTRF (1 µM); for activity at 10 µM: footnote b: concentration 10 µM; for activity at 10 µM / activity at 1.25 µM: read-out: MASTL activity (%) HTRF; for activity at 1.25 µM: footnote a: concentration 1.25 µM
# T1 construct: GST; purchased Thermo Fisher Scientific
# T1 sequence (Q96GX5 1-879): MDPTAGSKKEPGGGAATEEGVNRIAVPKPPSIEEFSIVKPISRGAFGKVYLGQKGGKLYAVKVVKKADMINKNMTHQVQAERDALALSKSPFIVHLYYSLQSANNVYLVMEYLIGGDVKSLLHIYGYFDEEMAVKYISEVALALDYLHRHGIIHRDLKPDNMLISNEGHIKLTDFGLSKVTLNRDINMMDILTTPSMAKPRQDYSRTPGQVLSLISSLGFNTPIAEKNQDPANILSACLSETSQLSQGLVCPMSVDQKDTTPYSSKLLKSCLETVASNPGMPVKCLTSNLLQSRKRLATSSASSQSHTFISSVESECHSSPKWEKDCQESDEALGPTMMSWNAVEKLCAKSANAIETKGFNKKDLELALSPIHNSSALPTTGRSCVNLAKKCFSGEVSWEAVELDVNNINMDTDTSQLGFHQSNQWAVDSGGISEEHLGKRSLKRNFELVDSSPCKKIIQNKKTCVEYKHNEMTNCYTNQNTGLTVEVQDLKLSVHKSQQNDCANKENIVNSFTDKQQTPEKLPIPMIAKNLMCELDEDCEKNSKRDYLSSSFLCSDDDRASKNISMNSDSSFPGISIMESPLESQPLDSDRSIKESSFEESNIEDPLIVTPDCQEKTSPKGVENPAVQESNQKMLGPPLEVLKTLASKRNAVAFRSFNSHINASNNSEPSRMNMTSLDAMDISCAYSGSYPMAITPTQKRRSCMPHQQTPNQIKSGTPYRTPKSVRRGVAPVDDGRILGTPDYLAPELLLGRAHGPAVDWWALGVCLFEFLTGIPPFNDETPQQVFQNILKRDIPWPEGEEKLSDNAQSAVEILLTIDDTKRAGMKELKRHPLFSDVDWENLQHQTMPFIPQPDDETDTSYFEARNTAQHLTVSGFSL
# Description: Recombinant GST-TAG-MASTL (Thermo Fisher Scientific, MA, USA) was used for HTRF-based kinase assays. The HTRF KinEASE assay kit (CisBio, MA, USA) was used according to the manufacturer's instructions.
# [4] = read-out: IC50(nM) Cell viability (MCF10A)
# [5] = read-out: IC50 Cell viability (MCF7)
# [6] = HTRF, read-out: IC50(nM) MASTL activity
# [7] = read-out: IC50 Cell viability (MCF10A)
# [8] = read-out: IC50(nM) Cell viability (MCF7)
# [9] = HTRF, unit µM, read-out: IC50 MASTL activity
Structure (SMILES),viability at 1 µM (in vitro; mcf10a cells),"IC50 [1, 4]",pENSA (%) Immunofluor ecense (1 µM) (pENSA),viability at 1 µM [2],"IC50 [2, 5]","IC50 [3, 6]",activity at 1 µM ([3]; compound 1 µM),IC50 (pENSA; read-out: IC50(nM) pENSA),viability at 1.25 µM [2],"IC50 [1, 7]",other results
"CC(C)(C)OC(=O)N1CC2CCC1CN2c1nc(Nc2cc(C3CC3)[nH]n2)c2ccccc2n1 (stereo not shown) [compound 19, sdqs,butyl 5-(4-((5-cyclopropyl-1G-pyrazol-3-yl)amino)quinazolin-2-yl)-2,5-diazabicyclo[2.2.2]octane-2-carboxylate]",71.3%,810 nM,84.7%,41.2%,1100 nM,569 nM,39.9%,–,–,–,–
"CC(C)C(=O)N1CC=C(c2nc(Nc3cc(C4CC4)[nH]n3)c3ccccc3n2)CC1 [compound 9b, 1-(4-(4-((5-cyclopropyl-1G-pyrazol-3-yl)amino)quinazolin-2-yl)-3,6-dihydropyridin-1(2G)-yl)-2-methylpropan-1-one]",12.3%,316 nM,34.6%,52.5%,1000 nM,136 nM,21.7%,832 nM,–,–,–
"OCCN1CCN(c2nc(Nc3cc(C4CC4)[nH]n3)c3ccccc3n2)CC1 [compound 12b, 2-(4-(4-((5-cyclopropyl-1G-pyrazol-3-yl)amino)quinazolin-2-yl)piperazin-1-yl)ethan-1-ol]",–,2600 nM,41.7%,–,1500 nM,807 nM,–,852 nM,69.4%,–,viability at 1.25 µM (in vitro; mcf10a cells): 123%; activity at 10 µM [3]: 17.7%
"c1ccc(CNc2nc(Nc3cc(C4CC4)[nH]n3)c3ccccc3n2)cc1 [compound 4cc, N^2-benzyl-N^4-(5-cyclopropyl-1H-pyrazol-3-yl)quinazoline-2,4-diamine]",–,–,–,–,1100 nM,298 nM,–,363 nM,65.5%,2800 nM,viability at 1.25 µM (in vitro): 98.5%; activity at 10 µM [3]: 22%
"c1ccc2c(Nc3cc(C4CC4)[nH]n3)nc(N3CC4CCC3CN4)nc2c1 (stereo not shown) [compound 20, 2-(2,5-diazabicyclo[2.2.2]octan-2-yl)-M-(5-cyclopropyl-1G-pyrazol-3-yl)quinazolin-4-amine trifluoroacetic acid]",3.9%,131 nM,30.9%,5.5%,–,–,–,66.5 nM,–,–,"IC50 [2, 8]: 150 nM; IC50 [3]: 194 nM; activity at 1 µM [3]: 36.5%"
"CCCS(=O)(=O)N1CC2CC1CN2c1nc(Nc2cc(C3CC3)[nH]n2)c2ccccc2n1 (stereo not shown) [compound 15j, M-(5-cyclopropyl-1G-pyrazol-3-yl)-2-(5-(propylsulfonyl)-2,5-diazabicyclo[2.2.1]heptan-2-yl)quinazolin-4-amine]",–,–,65.2%,–,3200 nM,284 nM,31.6%,–,–,1300 nM,viability at 1.1 µM (in vitro; mcf10a cells): 65.2%; viability at 1.1 µM [2]: 104%
"CCNC(=O)N1CC2CC1CN2c1nc(Nc2cc(C3CC3)[nH]n2)c2ccccc2n1 (stereo not shown) [compound 15a, 5-(4-((5-cyclopropyl-1G-pyrazol-3-yl)amino)quinazolin-2-yl)-M-ethyl-2,5-diazabicyclo[2.2.1]heptane-2-carboxamide]",–,820 nM,86.1%,–,–,–,–,–,61%,–,"viability at 1.25 µM (in vitro; mcf10a cells): 37%; IC50 [3, 9]: 1100 nM; activity at 1.25 µM [3]: 61.1%"
"c1ccc(Nc2nc(Nc3cc(C4CC4)[nH]n3)c3ccccc3n2)cc1 [compound 4a, M^4-(5-cyclopropyl-1G-pyrazol-3-yl)-M^2-phenylquinazoline-2,4-diamine]",–,881 nM,3.7%,–,–,987 nM,–,501 nM,8.1%,–,"viability at 1.25 µM (in vitro; mcf10a cells): 34%; IC50 [2, 8]: 649 nM; activity at 1.25 µM [3]: 54.9%"
"c1ccc2c(Nc3cc(C4CC4)[nH]n3)nc(Nc3ccc4[nH]ncc4c3)nc2c1 [compound 4dd, N^4-(5-cyclopropyl-1H-pyrazol-3-yl)-N^2-(1H-indazol-5-yl)quinazoline-2,4-diamine]",–,107 nM,–,12.9%,–,157 nM,17.9%,–,–,–,"viability at 1 µM (in vitro): 3.7%; IC50 (pENSA; unit µM, read-out: IC50 pENSA): 1500 nM; IC50 [2, 8]: 317 nM"
"NCCCNC(=O)c1ccc(Nc2nc(Nc3cc(C4CC4)[nH]n3)c3ccccc3n2)cc1 [4ab, M-(3-aminopropyl)-4-((4-((5-cyclopropyl-1G-pyrazol-3-yl)amino)quinazolin-2-yl)amino)benzamide.trifluoroacetic acid]",101%,–,188%,101%,12400 nM,–,–,–,–,5800 nM,IC50 [3]: 1100 nM; activity at 1 µM [3]: 36.2%
"CC(C)(C)OC(=O)NCCNC(=O)c1ccc(Nc2nc(Nc3cc(C4CC4)[nH]n3)c3ccccc3n2)cc1 [compound 4w, sdqs-butyl (2-(4-((4-((5-cyclopropyl-1G-pyrazol-3-yl)amino)quinazolin-2-yl)amino)benzamido)ethyl)carbamate]",63.4%,908 nM,135%,72%,1800 nM,–,48.5%,–,–,–,"IC50 [3, 9]: 1300 nM"
"CC(C)S(=O)(=O)N1CC2CC1CN2c1nc(Nc2cc(C3CC3)[nH]n2)c2ccccc2n1 (stereo not shown) [compound 15h, M-(5-cyclopropyl-1G-pyrazol-3-yl)-2-(5-(isopropylsulfonyl)-2,5-diazabicyclo[2.2.1]heptan-2-yl)quinazolin-4-amine]",–,833 nM,51.7%,–,1700 nM,147 nM,15.7%,–,–,–,viability at 1.1 µM (in vitro; mcf10a cells): 45%; viability at 1.1 µM [2]: 94.5%
"NCCNC(=O)c1ccc(Nc2nc(Nc3cc(C4CC4)[nH]n3)c3ccccc3n2)cc1 [4aa, M-(2-aminoethyl)-4-((4-((5-cyclopropyl-1G-pyrazol-3-yl)amino)quinazolin-2-yl)amino)benzamide.trifluoroacetic acid]",111%,–,142.5%,87.6%,4500 nM,–,–,–,–,9000 nM,IC50 [3]: 720 nM; activity at 1 µM [3]: 26.8%
